These results are taken from PubChem BioAssay AID206 (DTP/NCI, 2004).

The experiment relates to nude mice, HT29 intrarenal xenograft, tumor weight T/C. Kind of experiment: NCI In Vivo Anticancer Drug Screen. Data for tumor model HT29;CX-1 Human Adenocarcinoma (MER+) (intrarenal inoculation) in NU/NU Swiss (nude) mice. The following applies: endpoint: mean tumor weight change, higher = larger tumour. The gist of the method:
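Endpoint measured as tumor size or survival; ratio reported is treated group over vehicle controls.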

The mark [1] stands for this setting: dose: 50.0 mg/kg/injection, schedule: Q04DX004 (sc), vehicle: saline with Tween-80.
The mark [2] stands for this setting: dose: 200.0 mg/kg/injection, schedule: Q04DX004 (sc), vehicle: saline with Tween-80.
The mark [3] stands for this setting: dose: 300.0 mg/kg/injection, schedule: Q04DX004 (sc), vehicle: saline with Tween-80.
[4] abbreviates: dose: 12.5 mg/kg/injection, schedule: Q04DX004 (sc), vehicle: saline with Tween-80.

“And” between values parts separate entries of the source, which are not always exact repeats. Equal values may be shown once. Records with an inconclusive call do not appear.

For `O=C(O)CC(=O)O.[NH-]C1CCCCC1[NH-].[Pt+2]` (centres undefined), the T/C by setting is: (dose: 10.0 mg/kg/injection, schedule: Q01DX010 (sc), vehicle: dextrose) 264 % of control; (dose: 15.0 mg/kg/injection, schedule: Q01DX010 (sc), vehicle: dextrose) 73 % of control; (dose: 30.0 mg/kg/injection, schedule: Q01DX010 (sc), vehicle: dextrose) 32 % of control and 43 % of control; (dose: 40.0 mg/kg/injection, schedule: Q01DX010 (sc), vehicle: dextrose) 21 % of control; (dose: 60.0 mg/kg/injection, schedule: Q01DX010 (sc), vehicle: dextrose) 34 % of control and 44 % of control; (dose: 120.0 mg/kg/injection, schedule: Q01DX010 (sc), vehicle: dextrose) 51 % of control.

Turning to `COc1cc2cc(c1Cl)N(C)C(=O)CC(OC(=O)C(C)C)C1(C)OC1C(C)C1CC(O)(NC(=O)O1)C(OC)/C=C/C=C(C)C2` (centres undefined), the T/C was 74 % of control (dose: 12.5 micrograms/kg/injection, schedule: Q04DX004 (sc), vehicle: saline + alcohol); 155 % of control (dose: 25.0 micrograms/kg/injection, schedule: Q04DX004 (sc), vehicle: saline + alcohol); 165 % of control (dose: 50.0 micrograms/kg/injection, schedule: Q04DX004 (sc), vehicle: saline + alcohol); 31 % of control (dose: 100.0 micrograms/kg/injection, schedule: Q04DX004 (sc), vehicle: saline + alcohol); 5 % of control (dose: 500.0 micrograms/kg/injection, schedule: Q04DX004 (sc), vehicle: saline + alcohol).

Take `Nc1nnc[se]1`: the T/C is 58 % of control under setting [1]; 33 % of control (dose: 100.0 mg/kg/injection, schedule: Q04DX004 (sc), vehicle: saline with Tween-80); 34 % of control under setting [2]; 23 % of control (dose: 400.0 mg/kg/injection, schedule: Q04DX004 (sc), vehicle: saline with Tween-80).

Take `COc1ccc(S(=O)(=O)N=N/C=C2\C=CC=CN2O)cc1OC`: the T/C was 61 % of control (dose: 18.75 mg/kg/injection, schedule: Q04DX004 (sc), vehicle: saline with Tween-80); 54 % of control (dose: 37.5 mg/kg/injection, schedule: Q04DX004 (sc), vehicle: saline with Tween-80); 55 % of control under setting [3].

On to `C[n+]1cccc(NC(=O)c2ccc(NC(=O)C34CCC(C(=O)Nc5ccc(C(=O)Nc6ccc[n+](C)c6)cc5)(CC3)CC4)cc2)c1`, for which the T/C runs as follows: under setting [4], 118 % of control; (dose: 25.0 mg/kg/injection, schedule: Q04DX004 (sc), vehicle: saline with Tween-80) 47 % of control; under setting [1], 7 % of control and 21 % of control.

Regarding `Oc1cc2c3c(c1)c1cc4c(cc1c[n+]3CC2)OCO4`, the T/C was 53 % of control (dose: 100.0 mg/kg/injection, schedule: Q04DX004 (sc), vehicle: water); 61 % of control (dose: 200.0 mg/kg/injection, schedule: Q04DX004 (sc), vehicle: water); 73 % of control (dose: 400.0 mg/kg/injection, schedule: Q04DX004 (sc), vehicle: water).

`O=C1C=C[C@H](O)[C@@]2(CO)O[C@@H]12`: the T/C was 109 % of control (dose: 6.25 mg/kg/injection, schedule: Q04DX004 (sc), vehicle: saline with Tween-80) and 82 % of control under setting [4].

Regarding `COc1cccc2c1C(=O)c1c(O)c3c(c(O)c1C2=O)C[C@@](O)(/C(C)=N/NC(=O)c1ccc(Cl)cc1)C[C@@H]3OC1CC(N)C(O)C(C)O1` (some centres undefined), the T/C is 88 % of control (dose: 10.0 mg/kg/injection, schedule: Q04DX004 (sc), vehicle: water); 39 % of control (dose: 20.0 mg/kg/injection, schedule: Q04DX004 (sc), vehicle: water); 25 % of control (dose: 80.0 mg/kg/injection, schedule: Q04DX004 (sc), vehicle: water).

Turning to `Cc1ccc(S(=O)(=O)OCOS(=O)(=O)c2ccc(C)cc2)cc1`, the T/C was 118 % of control (dose: 150.0 mg/kg/injection, schedule: Q04DX004 (sc), vehicle: Klucel (hydroxypropylcellulose) (HPC)); 100 % of control (dose: 300.0 mg/kg/injection, schedule: Q04DX004 (sc), vehicle: Klucel (hydroxypropylcellulose) (HPC)); 53 % of control (dose: 600.0 mg/kg/injection, schedule: Q04DX004 (sc), vehicle: Klucel (hydroxypropylcellulose) (HPC)); 68 % of control (dose: 1200.0 mg/kg/injection, schedule: Q04DX004 (sc), vehicle: Klucel (hydroxypropylcellulose) (HPC)).

As to `C1CCC2OCCOCCOC3CCCCC3OCCOCCOC2C1` (centres undefined), the T/C is 89 % of control (dose: 37.5 mg/kg/injection, schedule: Q04DX004 (sc), vehicle: Klucel (hydroxypropylcellulose) (HPC)) and 89 % of control (dose: 75.0 mg/kg/injection, schedule: Q04DX004 (sc), vehicle: Klucel (hydroxypropylcellulose) (HPC)).

`CNC(=O)n1c(N)nc(-c2ccccc2)c1-c1ccccc1`: the T/C under setting [3] is 92 % of control and the T/C (dose: 600.0 mg/kg/injection, schedule: Q04DX004 (sc), vehicle: saline with Tween-80) was 38 % of control.

Take `CCCCN(CCCC)C(Cl)=Nc1ccccc1`: the T/C is, setting by setting: (dose: 100.0 mg/kg/injection, schedule: Q04DX004 (sc), vehicle: other) 103 % of control; (dose: 200.0 mg/kg/injection, schedule: Q04DX004 (sc), vehicle: other) 100 % of control; (dose: 400.0 mg/kg/injection, schedule: Q04DX004 (sc), vehicle: other) 96 % of control; (dose: 800.0 mg/kg/injection, schedule: Q04DX004 (sc), vehicle: other) 91 % of control.

In the case of `BrCC[Se]c1ccccc1`, the T/C under setting [2] is 16 % of control.

In the case of `CSc1cc(C)[o+]c(C)c1`, the T/C (dose: 50.0 mg/kg/injection, schedule: Q04DX004 (sc), vehicle: Klucel (hydroxypropylcellulose) (HPC)) was 107 % of control; the T/C (dose: 100.0 mg/kg/injection, schedule: Q04DX004 (sc), vehicle: Klucel (hydroxypropylcellulose) (HPC)) was 57 % of control; the T/C (dose: 200.0 mg/kg/injection, schedule: Q04DX004 (sc), vehicle: Klucel (hydroxypropylcellulose) (HPC)) is 41 % of control.

Turning to `CCN(Cc1ccc(Cl)c(Cl)c1)c1ccc2nc(N)nc(N)c2c1C`, the T/C was 44 % of control (dose: 9.38 mg/kg/injection, schedule: Q04DX004 (sc), vehicle: distilled water + Tween-80); 54 % of control (dose: 18.75 mg/kg/injection, schedule: Q04DX004 (sc), vehicle: distilled water + Tween-80); 93 % of control (dose: 37.5 mg/kg/injection, schedule: Q04DX004 (sc), vehicle: distilled water + Tween-80); 47 % of control (dose: 75.0 mg/kg/injection, schedule: Q04DX004 (sc), vehicle: distilled water + Tween-80).

Consider `C=C(C)[C@]12CC(C)C34OC(/C=C\C=C\CCCCCCCCC)(O[C@@H]1[C@@H]3[C@@H]1O[C@]1(CO)[C@@H](O)[C@]1(O)C(=O)C(C)=C[C@@H]41)O2` (some centres undefined), for which the T/C reads like this: (dose: 0.38 mg/kg/injection, schedule: Q04DX004 (sc), vehicle: distilled water + alcohol) 73 % of control; (dose: 0.75 mg/kg/injection, schedule: Q04DX004 (sc), vehicle: distilled water + alcohol) 40 % of control; (dose: 1.5 mg/kg/injection, schedule: Q04DX004 (sc), vehicle: distilled water + alcohol) 63 % of control; (dose: 3.0 mg/kg/injection, schedule: Q04DX004 (sc), vehicle: distilled water + alcohol) 37 % of control.

Turning to `O=C1C=C(C2OC(CO)C(O)C2O)C(=O)N1` (centres undefined), the T/C is 78 % of control (dose: 6.25 mg/kg/injection, schedule: Q01DX010 (sc), vehicle: saline) and 78 % of control (dose: 12.5 mg/kg/injection, schedule: Q01DX010 (sc), vehicle: saline).

Regarding `Cn1cnc([N+](=O)[O-])c1SCC(=O)O`, the T/C (dose: 300.0 mg/kg/injection, schedule: Q04DX004 (sc), vehicle: saline) is 89 % of control; the T/C (dose: 600.0 mg/kg/injection, schedule: Q04DX004 (sc), vehicle: saline) was 83 % of control; the T/C (dose: 1200.0 mg/kg/injection, schedule: Q04DX004 (sc), vehicle: saline) is 66 % of control; the T/C (dose: 2400.0 mg/kg/injection, schedule: Q04DX004 (sc), vehicle: saline) was 77 % of control.

Regarding `Cc1cc2c(c3oc(C4(C)OC4C4OC4C)cc(=O)c13)C(=O)c1c(O)c(C3CC(C)(N(C)C)C(O)C(C)O3)cc(C3CC(N(C)C)C(O)C(C)O3)c1C2=O` (centres undefined), the T/C (dose: 0.13 mg/kg/injection, schedule: Q01DX010 (sc), vehicle: saline) is 50 % of control.

For the compound `CCCCCCCCCCCCCCCCCCOCC(COP(=O)([O-])OCC[N+](C)(C)C)OC` (centres undefined), the T/C is, setting by setting: (dose: 37.5 mg/kg/injection, schedule: Q04DX004 (sc), vehicle: saline) 98 % of control; (dose: 75.0 mg/kg/injection, schedule: Q04DX004 (sc), vehicle: saline) 77 % of control; (dose: 150.0 mg/kg/injection, schedule: Q04DX004 (sc), vehicle: saline) 50 % of control.

`COc1cc2c(cc1O)N=C[C@@H]1CCC(O)N1C2=O` (mixture of isomers): where the note is “dose: 10.0 mg/kg/injection, schedule: Q04DX004 (sc), vehicle: suspension in saline”, the T/C is 64 % of control.
